Results reported in publication PMC9457798, “In Vivo Anticancer Evaluation of 6b, a Non-Covalent Imidazo[1,2-a]quinoxaline-Based Epidermal Growth Factor Receptor Inhibitor against Human Xenograft Tumor in Nude Mice” (Molecules, 2022).

Tests used:
EGFR = tested on: EGFR; set-up: method as in PMID 25342981, PMID 27121209; conditions: earlier report of the authors; read-out: IC50 (EGFR inhibition); cited from earlier work
[1] = tested on: PI3K/AKT pathway (AKT, P-AKT, PI3K, PTEN); assay: Western blot (immunoblotting) of tumor tissue from A549 xenograft mice; assay type: in vivo, nude mice; conditions: for PTEN protein level in tumors: gefitinib 30 mg/kg, 6b both doses, vs control untreated mice
Description: Tissue that had been kept at −80 °C was removed and placed on ice for 5 min. A total of 20 mg of tissue was diced and placed in a 1.5 mL microcentrifuge tube kept on ice. The tissue was lysed to extract the proteins using RIPA lysis buffer with a cocktail (IX) of phosphatase and protease inhibitors, followed by sonication for 30 min. After that, the mixture was centrifuged, and the supernatant was collected for protein estimation using the Bradford assay. Thereafter, immunoblotting was performed using SDS-PAGE for the separation and resolving of individual proteins by their molecular weights. The proteins were further transferred to nitrocellulose membranes, and blocking was performed in 3% powdered milk solution. Further, the membrane was washed using TBST buffer and was incubated in primary antibody (CST) for 3 h. After incubation, the membrane was washed in TBST and re-incubated for 1h in secondary antibody. The immune complex was detected using ChemiDoc^TM (BioRad) after washing the membrane with TBST [46].

[2] = In vitro microsomal stability, mouse liver microsomes
Description: (§1) Compounds were incubated at a final concentration of 1 µM with human (HLM) and mouse (MLM) at 0.5 mg/mL and NADPH (1 mM) in 100 mM phosphate buffer (pH 7.4) at 37 °C. The reactions were terminated at 0 and 30 min by the addition of cold acetonitrile containing propranolol (50 ng/mL) as an internal standard.

[3] = tested on: H1975 lung cancer cells with mutant EGFR (L858R/T790M); conditions: gefitinib-resistant H1975, EGFR L858R/T790M; earlier report of the authors; read-out: IC50 (anti-proliferative, H1975 cells); cited from earlier work
[4] = tested on: Twist, Zeb1, and Hif-1α gene expression; assay: qPCR analysis of Twist, Zeb1 and Hif-1α in tumor tissue from treated mice; assay type: in vivo, nude mice; conditions: vs untreated mice
[5] = In vitro microsomal stability, human liver microsomes; assay type: in vitro ADME; conditions: for microsomal CLint at 1 µM / half-life at 1 µM / remaining at 0.5 h, 1 µM: human, liver microsomes, 0.5 mg/mL microsomes; for microsomal CLint at 1 µM / half-life at 1 µM: pH 7.4, NADPH; for microsomal CLint at 1 µM: read-out: CLint HLM; for half-life at 1 µM: read-out: t½ HLM; for remaining at 0.5 h, 1 µM: NADPH 1 mM, pH 7.4, 37 °C, read-out: % Remaining after 30 min HLM
Description: as §1

A549 xenograft tumor = assay: A549-cell-induced lung cancer xenograft model in nude mice; conditions: for % tumor growth inhibition: intraperitoneally once a week, 21 days; for Average tumor weight: compared with the other groups; for Cytotoxic effect on the tumor (H&E staining): excised tumors
Description: The animal experiments were performed as per the guidelines of the Committee for the Purpose of Control and Supervision of Experiments on Animals (CPCSEA) with the approval of the Institutional Animal Ethics Committee (# IAEC/19/14). Four–five-week-old male athymic nude mice were procured from Vivo Bio Tech Ltd., Hyderabad, India. Animals were kept in an individually ventilated caging (IVC) system in a pathogen-free environment with standard conditions of temperature: 22 ± 1 °C, humidity: 50 ± 10%, and a 12 h light/dark cycle maintained in the National Toxicology Center (NTC) in the National Institute of Pharmaceutical Education and Research (NIPER), Mohali. Throughout the study, animals were fed with a standard rodent chow diet and water ad libitum.
Xenograft, the nude mice model, was developed by injecting A549 (1 × 10 ^6 cells, suspended in Matrigel™) subcutaneously into the right flank of each mouse. Tumor-bearing mice were randomly divided into four groups with seven animals per group after attaining an anticipated tumor volume of >80 mm^3. […] Treatment was given intraperitoneally once a week for a period of 21 days. Tumor volume and body weight were measured weekly during the study. Vernier caliper was used to measure the size of A549-cell-induced tumors weekly, starting from two weeks after inoculation.
Tumors were surgically removed from animals, sliced, and fixed in 10% v/v formal saline. For the histological study, the sliced tumors were processed and embedded in paraffin; sections of 5 µm were mounted on poly-L-lysine-coated glass slides. Sections were then stained with hematoxylin & eosin (H&E) to observe the structural alterations as described.

in vitro = conditions: mouse, microsomes, pH 7.4
Description: as §1

[6] = mouse, liver microsomes, pH 7.4

Row | SMILES | PTEN protein level in tumors [1] | Expression of the Hif-1α gene in tumors [4] | microsomal CLint at 1 µM [5] [µL/min/mg] | half-life at 1 µM [5] [h] | remaining at 0.5 h, 1 µM [5] [%] | Kaplan–Meier survival (A549 xenograft tumor; 30 mg/kg, i.p.) | Average tumor weight (A549 xenograft tumor; 30 mg/kg, i.p.) | Cytotoxic effect on the tumor (H&E staining) (A549 xenograft tumor) | other results
1 | COc1cc(C=Nc2c(C#N)nc3c(-c4cc(OC)c(OC)c(OC)c4)nc4ccccc4n23)cc(OC)c1OC [6b, 1-((3,4,5-Trimethoxybenzylidene)amino)-4-(3,4,5-trimethoxyphenyl)imidazo[1,2-a]quinoxaline-2-carbonitrile] | increased | decreased | 80 | 0.287 | 29.9 | improved the survival of the mice | lower | marked cytotoxic damage | IC50 (EGFR): 211 nM; AKT, P-AKT and PI3K protein level in tumor masses ([1]; LD (10 mg/kg) and HD (30 mg/kg), vs untreated mice): decreased; Stability in mouse liver microsomes (in words) [2]: good stability; half-life at 1 µM [2, 6]: 0.602 h; microsomal CLint at 1 µM [2, 6]: 38 µL/min/mg; remaining at 0.5 h, 1 µM [2, 6]: 56.2%; IC50 [3]: 3650 nM; Expression of EMT-regulating genes Twist and Zeb1 in tumors [4]: decreased; Stability in human liver microsomes (in words) [5]: good stability; % tumor growth inhibition (A549 xenograft tumor; 10 mg/kg (LD)): 16%; Effect on tumor volume / size (A549 xenograft tumor; 30 mg/kg, i.p., vs tumor control): significantly decreased the size of the tumors; % tumor growth inhibition (A549 xenograft tumor; 30 mg/kg): 33%
2 | NC(=O)N1c2ccccc2C=Cc2ccccc21 [Carbamazepine, reference compound] |  |  | 3 | 7.97 | 95.7 |  |  |  | half-life at 1 µM (in vitro): 2.17 h; microsomal CLint at 1 µM (in vitro): 11 µL/min/mg; remaining at 0.5 h, 1 µM (in vitro): 85.2%
3 | COc1cc2ncnc(Nc3ccc(F)c(Cl)c3)c2cc1OCCCN1CCOCC1 [gefitinib, reference compound] | increased | decreased |  |  |  | improved the survival of the mice | lower | marked cytotoxic damage | Effect on tumor volume / size (A549 xenograft tumor; mouse, in vivo): suppression of tumor volume to some extent
